Measurements: patent US5668157A, “Cyanoguanidines as K-channel blockers” (Pharmacia & Upjohn Company, priority 1996, dated 1997)

Key:
[1] = system: K^+ channel, rabbit mesenteric artery (RMA) rings; experiment: Inhibition of pinacidil-induced relaxation of norepinephrine-contracted isolated rabbit mesenteric artery (RMA) rings (K^+ channel antagonism); assay type: cell-based; details: Oryctolagus cuniculus, 0.25 h, pinacidil 1 μM, norepinephrine 5 μM, read-out: RMA K^+ Antagonism % I (percent inhibition of pinacidil relaxation at 15 minutes); for inhibition at 0.1 µM: conc. 0.1 μM; for inhibition at 0.3 µM: conc. 0.3 μM; for inhibition at 10 µM: conc. 10 μM
Description: The results for potassium channel blocking were obtained by using isolated rabbit mesenteric artery (RMA) procedures. Norepinephrine (5 μM) was used to contract the RMA rings twice, with an hour separating the two contractions. During this hour the tissues equilibrated in physiological salt solution at a resting tension of 1 gram. Upon the plateau of the second contraction 1 μM pinacidil was added to all tissues and the resulting relaxation time course was studied for thirty minutes. […] By studying the ability of the test compounds to inhibit this pinacidil-induced relaxation, the degree of potassium antagonism could be determined. The compounds were applied to the tissues for one hour between the two contractions and the pinacidil-induced relaxation was studied in the continuing presence of the compounds. Thus, the total time of pretreatment with the test compound was 75 minutes before the addition of pinacidil.
(§1) Data for K^+ channel antagonist activity on rabbit mesenteric artery (RMA) and natriuretic efficacy after […] (IP) administration to rats are collected in Table II.
^a Lowest inhibitor concentration (μM) that gave greater than 20%
inhibition or lowest concentration tested.
^b This is a measure of a compound's ability to inhibit the relaxatio
of norepinephrine (5 μM) contracted rabbit mesenteric artery rings by
pinacidil (1 μM). It is expressed as percent inhibition. Compounds wit
65% or greater inhibition at 5 μM are considered to be active, with
20-65% inhibition moderately active and with less than 20% inhibition

[2] = Diuretic screen: urinary Na^+ excretion after IP administration to rats; assay type: in vivo, rat (female Harlan Sprague-Dawley); details: rat, IP, 5, 15 and 30 mg/kg, 5 hour test period
Description: as §1
The diuretic activity was determined in female Harlan Sprague-Dawley rats weighing 200 to 230 grams that were fasted 15 hours overnight, and then were deprived of both food and water for an additional hour prior to dosing. […] It approximates the area under the dose response curve. The vehicle was 20% dimethylacetamide (DMA; v/v) in a pH 7.4 phosphate buffer (0.58% Na2 HPO4 and 0.13% NaH2 PO4.H2 O). Sufficient drug was suspended in 1 to 2 ml of this vehicle to deliver doses of 5, 15 and 30 mg/kg in a volume of 0.5 ml (2-4 rats/dose). At least 2 vehicle control rats, and, for most tests, 2 standard diuretic treated rats were included in each experiment. Standards used as comparators included the K^+ retaining diuretic amiloride and the K^+ wasting diuretics furosemide, hydrochlorothiazide and metolazone.
Following their IP doses, the rats' urinary bladders were gently compressed to eliminate all pretreatment urine, and two identically treated rats were placed in a stainless steel metabolism cage equipped with a graduated test tube to collect voided urine. At 2 and 5 hours post treatment, the rats' bladders were again compressed, the volume of urine excreted by the pair of rats was recorded, and aliquots of urine were retained for analysis of Na^+ and K^+ concentrations with a NOVA-13 selective ion analyzer. Following the 5 hour urine collection, the rats were returned to their stock cages, and at least 1 week of recovery was allowed between a maximum of 3 diuretic tests.
The electrolyte concentrations detected in these urine samples were manually multiplied by their respective volumes to determine total milliequivalent (mEq) excretion of Na^+ and K^+ per pair of rats, and the results obtained with multiple racks per drug treatment were averaged. Increases in urinary Na^+ excretion of 50% or more above the pooled control tests were regarded as reflecting activity.
^c This represents the net increase (above control) in urinary
Na^+ excretion (μEq) for the 5 hour test period divided by the
total of the three drug doses (mg/kg) administered IP in the stage II
diuretic screen in rats. It approximates the area under the dose response

[3] = system: K^+ channel, rabbit mesenteric artery (RMA) rings; details: pinacidil 1 μM, norepinephrine-contracted RMA rings; cited from earlier work

| SMILES | 5 h Net Natriuretic Efficacy (net increase above control in urinary Na^+ excretion divided by total of three doses) [2] | inhibition at 10 µM [1] | other results |
| --- | --- | --- | --- |
| N#CN=C(Nc1cnc(Cl)c(N)c1)NC1(c2ccccc2)CCC1 [Compound 1, N-(5-Amino-6-chloro-3-pyridyl)-N"-cyano-N'-(1-phenylcyclobutyl)guanidine] | 39 μEq Na^+ /mg/kg |  | inhibition at 0.1 µM [1]: 90% |
| Cc1nc(N)ccc1NC(=NC#N)NC1(c2ccccc2)CCC1 [Compound 2, N-(6-Amino-2-methyl-3-pyridyl)-N"-cyano-N'-(1-phenylcyclobutyl)guanidine, methanol solvate] | 77 μEq Na^+ /mg/kg |  | inhibition at 0.3 µM [1]: 96% |
| N#CN=C(Nc1cncc(N)c1)NC1(c2ccccc2)CCC1 [Compound 3, N-(5-Amino-3-pyridyl)-N"-cyano-N'-(1-phenylcyclobutyl)guanidine] | 50 μEq Na^+ /mg/kg |  | inhibition at 0.3 µM [1]: 93% |
| CN(C)c1ncccc1NC(=NC#N)NC1(c2ccccc2)CCC1 [Compound 4, N-[2-(Dimethylamino)-3-pyridyl]-N"-cyano-N'-(1-phenylcyclobutyl)guanidine] | 10 μEq Na^+ /mg/kg |  | inhibition at 2 µM ([1]; conc. 2.0 μM): 87% |
| C[C@@H](NC(=NC#N)Nc1cccnc1N(C)C)c1ccccc1 [Compound 5, (R)-N-[2-(Dimethylamino)-3-pyridyl]-N"-cyano-N'-(1-phenylethyl)guanidine] | 15 μEq Na^+ /mg/kg |  | inhibition at 5 µM ([1]; conc. 5 μM): 17.4% |
| CC[C@@H](N=C(NC#N)Nc1cccnc1Cl)c1ccccc1 [Compound 6, (R)-N-(2-chloro-3-pyridyl)-N'-cyano-N"-(1-phenylpropyl)guanidine] | 48 μEq Na^+ /mg/kg |  | inhibition at 0.1 µM [1]: 77.5% |
| N#CN=C(Nc1ccc(NCCF)nc1)NC1(c2ccccc2)CCC1 [Compound 7, N-[6(2-Fluoroethylamino)-3-pyridyl]-N"-cyano-N'-(1-phenylcyclobutyl)guanidine] | 60 μEq Na^+ /mg/kg |  | inhibition at 1 µM ([1]; conc. 1.0 μM): 24.3% |
| CC[C@@H](NC(=NC#N)Nc1ccc(C)nc1)c1ccccc1 [Compound 8, (R)-N-(6-Methyl-3-pyridyl)-N"-cyano-N'-(1-phenylpropyl)guanidine] | 25 μEq Na^+ /mg/kg | 84.1% |  |
| CC[C@@H](NC(=NC#N)Nc1cncc(Br)c1)c1ccccc1 [Compound 9, (R)-N-(5-Bromo-3-pyridyl)-N"-cyano-N'-(1-phenylpropyl)guanidine] | 12 μEq Na^+ /mg/kg | 94.6% |  |
| CC[C@@H](NC(=NC#N)Nc1ccc(NCCF)nc1)c1ccccc1 [Compound 10, (R)-N-[6-(2-Fluoroethylamino)-3-pyridyl]-N"-cyano-N'-(1-phenylpropyl)guanidine] | 34 μEq Na^+ /mg/kg | 72.3% |  |
| CC[C@@H](NC(=NC#N)Nc1cccnc1C)c1ccccc1 [Compound 11, (R)-N-(2-Methyl-3-pyridyl)-N"-cyano-N'-(1-phenylpropyl)guanidine] | 25 μEq Na^+ /mg/kg | 91.6% |  |
| CC[C@@H](NC(=NC#N)Nc1cncc(N)c1)c1ccccc1 [Compound 12, (R)-N-(5-Amino-3-pyridyl)-N"-cyano-N'-(1-phenylpropyl)guanidine] | 26 μEq Na^+ /mg/kg | 85.8% |  |
| CC(=O)Nc1cncc(NC(=NC#N)NC2(c3ccccc3)CCC2)c1 [Compound 13, N-(5-Acetylamino-3-pyridyl)-N"-cyano-N'-(1-phenylcyclobutyl)guanidine] | 15 μEq Na^+ /mg/kg | 6.4% |  |
| CC[C@@H](NC(=NC#N)Nc1ccc(NS(C)(=O)=O)nc1)c1ccccc1 [Compound 14, (R)-N-(6-Methanesulfonylamino-3-pyridyl)-N"-cyano-N'-(1-phenylpropyl)guanidine] | 21 μEq Na^+ /mg/kg |  | inhibition at 30 µM ([1]; conc. 30 μM): 2.3% |
| CC(N/C(=N\C#N)Nc1ccncc1)C(C)(C)C (centres unmarked) [pinacidil] |  |  | K^+ channel dependent vasodilation by pinacidil [3]: maximal K^+ channel dependent vasodilation |
